Assay results as given in article PMC9182012, “Aza-Oxa-Triazole Based Macrocycles with Tunable Properties: Design, Synthesis, and Bioactivity” (Molecules, 2022).

How the values were obtained:
[1] = molecular target: bovine serum albumin (BSA) (Bos taurus, UniProt P02769); test: Protein interaction by fluorescence quenching, Stern–Volmer binding constant; conditions: for Extent of binding with BSA, in words: fluorescence quenching, 10 µM BSA, pH 7.4, 25 °C; for Binding Constant, BSA: slope of Stern–Volmer plot (Io/I vs macrocycle concentration), 10 µM BSA in phosphate buffer pH 7.4, 2–100 µM macrocycle from 2 mM DMSO stock, 25 °C, excitation 280 nm, 3 min equilibration
Method: (§1) All the fluorescence spectra were recorded on a Perkin Elmer (Waltham, MA, USA) FL 6500 at 25 °C. The excitation wavelength of 280 nm and a slit width of 5 nm were used for excitation and emission. Next, 6.6 mg of BSA/HSA was dissolved in 10 mL of pH 7.4 phosphate buffer to make 10 μM BSA/HSA. The stock solutions of macrocycles were of 2 mM concentration dissolved in DMSO. The titrations were carried out in varied concentrations of macrocycles from 2 μM to 100 μM. Three minutes were given as the equilibration time after the addition of the solution. The Stern–Volmer plot was used to calculate the binding constant (slope) by plotting Io/I vs. the macrocycle concentration.
(§2) Figure 4 Fluorescence quenching of protein by MC7 at excitation wavelength 280 nm, (a) BSA and (b) HSA. To 10 µM protein solution in phosphate buffer (pH 7.4), 2–100 µM macrocycle solution was added at 25 °C. Inset: Stern–Volmer Plot; Io and I are the fluorescence intensity at 0 µM and the given concentration of the macrocycle, and the slope is considered as the binding constant. […]
(§3) 8.2 Fluorescence spectroscopy for protein interaction studies
(§4) 8.2.1 Experimental Procedure
(§5) 10 μM BSA was prepared by dissolving 6.6 mg of BSA in 10 mL of phosphate buffer of pH
(§6) 7.4. The macrocycles were dissolved in DMSO to make the stock solution of 2 mM concentration. 2 mL of the BSA control solution was taken in the fluorescence cuvette to take the emission at zero concentration of the compound. The titration was carried out by varying the concentration of macrocycle from 2 μM to 100 μM. An equilibration time of 3 minutes is given for each measurement after the addition of the solution. Binding constant were estimated from the Stern-Volmer plot by plotting I o/I vs concentration of the macrocycle. The slope of the graph was attributed as the binding constant.

[2] = molecular target: human serum albumin (HSA) (Homo sapiens, UniProt P02768); test: as above; conditions: for Binding Constant, HSA: slope of Stern–Volmer plot (Io/I vs macrocycle concentration), 10 µM HSA in phosphate buffer pH 7.4, 2–100 µM macrocycle from 2 mM DMSO stock, 25 °C, excitation 280 nm, 3 min equilibration; for Extent of interaction with HSA, in words: fluorescence quenching, 10 µM HSA, pH 7.4, 25 °C
Method: as §1, §2, §3, §4, §5, §6

[3] = RP-HPLC retention time as measure of hydrophilicity/hydrophobicity; assay type: physicochemical; conditions: chromatographic, C18; acetonitrile and water with 0.1% formic acid, 5–95 % acetonitrile over 15 min; higher retention time = more hydrophobic
Text: The bulk properties of the macrocycles depend on the functional groups on the side chain and backbone and the ring size. The platform for the tunability in the macrocyclic scaffold aided in the synthesis of molecules with a wide range of properties. The hydrophilicity/hydrophobicity of the macrocycles is an important property, primarily for biological applications. The tunable property of the synthesized macrocycles is attributed to the different retention times in the reverse-phase high-performance liquid chromatogram (RP-HPLC). Hydrophilic compounds elute first through the column, thus lowering the retention time, whereas a higher retention time corresponds to the comparatively hydrophobic compounds. From Figure 3a, it could be inferred that the macrocycles MC1–5 and MC7 are hydrophilic, whereas MC8 and MC6 are hydrophobic, as depicted by the higher retention times. The higher hydrophobicity is due to the aromatic rings, two benzyl groups in MC6 and a naphthyl group in MC8. Another property achieved by one of the macrocycles is the addition of fluorophoric group as the side chain. The resultant fluorescence could be exploited for various photophysical applications, including the development of fluorimetric sensors (Figure 3b).
A Shimadzu (Kyoto, Japan) LC-MS-8045 with a Sprite TARGA C18 column (40 × 2.1 mm, 5 µm) was used for the LC-MS analysis. The spectra were monitored at 254 nm and 210 nm with a positive mode for mass detection. Water and acetonitrile with 0.1% formic acid were used as eluting solvents A and B. […] HRMS was carried out in a Bruker, Maxis Impact and Waters (Billerica, MA, USA) ACQUITY H-CLASS + UPLC/XevoG2 XS QTOF instrument. A 500 MHz Bruker AV III was used to record the ^1H NMR spectrum. The data were analyzed by MestReNova (version 8.1.1). ^1H NMR shifts are reported in units of ppm relative to tetramethyl silane. […]
Figure 3 Properties of the macrocycles. […] Fluorescence spectrum of 10 μM MC8 in methanol upon excitation with a wavelength of 278 nm.

Sequence of human serum albumin (HSA) (P02768 25-609): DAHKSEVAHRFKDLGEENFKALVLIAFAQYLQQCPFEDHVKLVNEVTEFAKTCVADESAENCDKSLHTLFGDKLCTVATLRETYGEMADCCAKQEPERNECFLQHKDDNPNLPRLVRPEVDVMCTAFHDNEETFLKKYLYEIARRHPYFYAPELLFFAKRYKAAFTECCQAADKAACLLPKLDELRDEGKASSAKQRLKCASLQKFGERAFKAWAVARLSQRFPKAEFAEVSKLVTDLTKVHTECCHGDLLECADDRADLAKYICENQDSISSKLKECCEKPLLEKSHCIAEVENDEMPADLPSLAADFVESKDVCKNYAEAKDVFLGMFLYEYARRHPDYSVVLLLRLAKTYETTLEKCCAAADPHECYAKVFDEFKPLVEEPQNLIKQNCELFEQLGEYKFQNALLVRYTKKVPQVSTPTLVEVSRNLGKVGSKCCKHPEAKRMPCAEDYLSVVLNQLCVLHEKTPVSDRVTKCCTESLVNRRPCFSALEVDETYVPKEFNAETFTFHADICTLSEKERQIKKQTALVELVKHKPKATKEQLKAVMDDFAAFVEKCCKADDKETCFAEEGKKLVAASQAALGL
Sequence of bovine serum albumin (BSA) (P02769 25-607): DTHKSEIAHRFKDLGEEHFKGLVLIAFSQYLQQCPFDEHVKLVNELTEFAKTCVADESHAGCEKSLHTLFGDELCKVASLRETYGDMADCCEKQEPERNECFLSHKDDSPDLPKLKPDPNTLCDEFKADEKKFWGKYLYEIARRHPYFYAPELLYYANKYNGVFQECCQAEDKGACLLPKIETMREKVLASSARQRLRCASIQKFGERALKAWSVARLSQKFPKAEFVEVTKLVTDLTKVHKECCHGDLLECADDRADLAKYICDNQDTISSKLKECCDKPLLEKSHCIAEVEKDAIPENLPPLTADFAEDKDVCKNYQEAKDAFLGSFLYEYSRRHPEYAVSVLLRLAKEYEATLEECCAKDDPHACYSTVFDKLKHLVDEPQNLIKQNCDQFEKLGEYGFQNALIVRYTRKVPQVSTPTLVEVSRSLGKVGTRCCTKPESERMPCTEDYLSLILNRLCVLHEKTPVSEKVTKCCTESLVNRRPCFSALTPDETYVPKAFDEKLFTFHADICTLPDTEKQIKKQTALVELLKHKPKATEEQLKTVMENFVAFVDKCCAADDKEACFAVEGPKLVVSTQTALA

SMILES	Extent of binding with BSA, in words [1]	Binding Constant, BSA [1]	Binding Constant, HSA [2]	Extent of interaction with HSA, in words [2]	Hydrophilicity/hydrophobicity inferred from RP-HPLC retention time [3]
CCCN1CCOCc2cn(nn2)CCNCCn2cc(nn2)C1 [MC1]	moderate binding	4600 M⁻¹	4200 M⁻¹	–	–
CC(C)N1CCOCc2cn(nn2)CCNCCn2cc(nn2)C1 [MC2]	moderate binding	4000 M⁻¹	4400 M⁻¹	–	–
c1c2nnn1CCNCCn1cc(nn1)CN(C1CCCCC1)CCOC2 [MC3]	moderate binding	4200 M⁻¹	3500 M⁻¹	–	–
CCN(CC)C(=O)CN1CCOCc2cn(nn2)CCNCCn2cc(nn2)C1 [MC4]	moderate binding	9100 M⁻¹	8400 M⁻¹	greater extent of interaction	–
CN1CCN(C)Cc2cn(nn2)CCNCCn2cc(nn2)C1 [MC5]	negligible binding	1400 M⁻¹	3200 M⁻¹	–	–

The remaining lines, values ahead:

Extent of binding with BSA, in words [1]	Binding Constant, BSA [1]	Binding Constant, HSA [2]	Extent of interaction with HSA, in words [2]	Hydrophilicity/hydrophobicity inferred from RP-HPLC retention time [3]	SMILES
negligible binding	800 M⁻¹	930 M⁻¹	lowest	hydrophobic	c1ccc(CN2CCN(Cc3ccccc3)Cc3cn(nn3)CCNCCn3cc(nn3)C2)cc1 [MC6]
highest binding	27100 M⁻¹	15800 M⁻¹	highest interaction and quenching	hydrophilic	c1c2nnn1CCNCCn1cc(nn1)COCCCCCCCCCCCCOC2 [MC7]
–	–	–	–	hydrophobic	c1ccc2cc(CN3CCOCc4cn(nn4)CCNCCn4cc(nn4)COCC3)ccc2c1 [MC8]
